According to ChEMBL document CHEMBL3045943, “Novel N-aryl(alkaryl)-2-[(3-R-2-oxo-2H-[1,2,4]triazino[2,3-c]quinazoline-6-yl)thio]acetamides: synthesis, cytotoxicity, anticancer activity, COMPARE analysis and docking” (2013):

Columns and labels:
Assay type in all cases: functional
MCF7 = assay: Cytotoxicity against Homo sapiens (human) MCF7 cells assessed as cell growth at 10 uM after 48 hr by SRB assay relative to control; conditions: MCF7, 48 h, read-out: Activity
[1] = system: Photobacterium leiognathi; assay: Growth inhibition of Photobacterium leiognathi Sh1 assessed as bio-luminescence at 0.025 mg/ml after 10 min by acute action test relative to control; parameters: scale not given: the % may be the effect or the level left
PC-3 = assay: Cytotoxicity against Homo sapiens (human) PC3 cells assessed as cell growth at 10 uM after 48 hr by SRB assay relative to control; conditions: PC-3, 48 h, read-out: Activity
SF-539 = assay: Cytotoxicity against Homo sapiens (human) SF539 cells assessed as cell growth at 10 uM after 48 hr by SRB assay relative to control; conditions: SF-539, 48 h, read-out: Activity
[2] = system: Photobacterium leiognathi; assay: Growth inhibition of Photobacterium leiognathi Sh1 assessed as bio-luminescence at 0.1 mg/ml after 10 min by acute action test relative to control; parameters: scale not given: the % may be the effect or the level left
[3] = system: Photobacterium leiognathi; assay: Growth inhibition of Photobacterium leiognathi Sh1 assessed as bio-luminescence at 0.25 mg/ml after 10 min by acute action test relative to control; parameters: scale not given: the % may be the effect or the level left
MDA-MB-435 = assay: Cytotoxicity against Homo sapiens (human) MDA-MB-435 cells assessed as cell growth at 10 uM after 48 hr by SRB assay relative to control; conditions: MDA-MB-435, 48 h, read-out: Activity
786-0 = assay: Cytotoxicity against Homo sapiens (human) 786-0 cells assessed as cell growth at 10 uM after 48 hr by SRB assay relative to control; conditions: 786-0, 48 h, read-out: Activity
[4] = Cytotoxicity against Homo sapiens (human) NCI-ADR-RES cells assessed as cell growth at 10 uM after 48 hr by SRB assay relative to control; conditions: read-out: Activity
SK-MEL-5 = assay: Cytotoxicity against Homo sapiens (human) SK-MEL-5 cells assessed as cell growth at 10 uM after 48 hr by SRB assay relative to control; conditions: SK-MEL-5, 48 h, read-out: Activity
OVCAR-4 = assay: Cytotoxicity against Homo sapiens (human) OVCAR4 cells assessed as cell growth at 10 uM after 48 hr by SRB assay relative to control; conditions: OVCAR-4, 48 h, read-out: Activity
OVCAR-8 = assay: Cytotoxicity against Homo sapiens (human) OVCAR8 cells assessed as cell growth at 10 uM after 48 hr by SRB assay relative to control; conditions: OVCAR-8, 48 h, read-out: Activity
RXF 393 = assay: Cytotoxicity against Homo sapiens (human) RXF393 cells assessed as cell growth at 10 uM after 48 hr by SRB assay relative to control; conditions: RXF 393, 48 h, read-out: Activity
Hs-578T = assay: Cytotoxicity against Homo sapiens (human) Hs 578T cells assessed as cell growth at 10 uM after 48 hr by SRB assay relative to control; conditions: read-out: Activity
ACHN = assay: Cytotoxicity against Homo sapiens (human) ACHN cells assessed as cell growth at 10 uM after 48 hr by SRB assay relative to control; conditions: read-out: Activity
LOX IMVI = assay: Cytotoxicity against Homo sapiens (human) LOXIMVI cells assessed as cell growth at 10 uM after 48 hr by SRB assay relative to control; conditions: read-out: Activity
SNB-75 = assay: Cytotoxicity against Homo sapiens (human) SNB75 cells assessed as cell growth at 10 uM after 48 hr by SRB assay relative to control; conditions: SNB-75, 48 h, read-out: Activity
SN12C = assay: Cytotoxicity against Homo sapiens (human) SN12C cells assessed as cell growth at 10 uM after 48 hr by SRB assay relative to control; conditions: read-out: Activity
NCI-H460 = assay: Cytotoxicity against Homo sapiens (human) NCI-H460 cells assessed as cell growth at 10 uM after 48 hr by SRB assay relative to control; conditions: NCI-H460, 48 h, read-out: Activity
HT-29 = assay: Cytotoxicity against Homo sapiens (human) HT-29 cells assessed as cell growth at 10 uM after 48 hr by SRB assay relative to control; conditions: HT-29, 48 h, read-out: Activity
Malme-3M = assay: Cytotoxicity against Homo sapiens (human) MALME-3M cells assessed as cell growth at 10 uM after 48 hr by SRB assay relative to control; conditions: read-out: Activity
[5] = system: Photobacterium leiognathi; assay: Growth inhibition of Photobacterium leiognathi Sh1 assessed as bio-luminescence at 0.25 mg/ml after 16 to 18 hr by chronic action test relative to control; parameters: scale not given: the % may be the effect or the level left
[6] = system: Photobacterium leiognathi; assay: Growth inhibition of Photobacterium leiognathi Sh1 assessed as bio-luminescence at 0.1 mg/ml after 16 to 18 hr by chronic action test relative to control; parameters: scale not given: the % may be the effect or the level left
UO-31 = assay: Cytotoxicity against Homo sapiens (human) UO31 cells assessed as cell growth at 10 uM after 48 hr by SRB assay relative to control; conditions: UO-31, 48 h, read-out: Activity
HCT-116 = assay: Cytotoxicity against Homo sapiens (human) HCT116 cells assessed as cell growth at 10 uM after 48 hr by SRB assay relative to control; conditions: HCT-116, 48 h, read-out: Activity
HOP-92 = assay: Cytotoxicity against Homo sapiens (human) HOP92 cells assessed as cell growth at 10 uM after 48 hr by SRB assay relative to control; conditions: HOP-92, 48 h, read-out: Activity
MDA-MB-231 = assay: Cytotoxicity against Homo sapiens (human) MDA-MB-231 cells assessed as cell growth at 10 uM after 48 hr by SRB assay relative to control; conditions: MDA-MB-231, 48 h, read-out: Activity
UACC-257 = assay: Cytotoxicity against Homo sapiens (human) UACC257 cells assessed as cell growth at 10 uM after 48 hr by SRB assay relative to control; conditions: UACC-257, 48 h, read-out: Activity
A498 = assay: Cytotoxicity against Homo sapiens (human) A498 cells assessed as cell growth at 10 uM after 48 hr by SRB assay relative to control; conditions: A498, 48 h, read-out: Activity
SR = assay: Cytotoxicity against Homo sapiens (human) SR cells assessed as cell growth at 10 uM after 48 hr by SRB assay relative to control; conditions: read-out: Activity
[7] = system: Photobacterium leiognathi; assay: Growth inhibition of Photobacterium leiognathi Sh1 assessed as bio-luminescence at 0.025 mg/ml after 16 to 18 hr by chronic action test relative to control; parameters: scale not given: the % may be the effect or the level left
BT-549 = assay: Cytotoxicity against Homo sapiens (human) BT549 cells assessed as cell growth at 10 uM after 48 hr by SRB assay relative to control; conditions: BT-549, 48 h, read-out: Activity
U-251 = assay: Cytotoxicity against Homo sapiens (human) U251 cells assessed as cell growth at 10 uM after 48 hr by SRB assay relative to control; conditions: U-251, 48 h, read-out: Activity

`Cc1ccc(CNC(=O)CSc2nc3ccccc3c3nc(=O)c(-c4ccccc4)nn23)cc1` showed a growth at 10 µM (MCF7) of 79.1%, an Activity [1] of 84.6% and a growth at 10 µM (PC-3) of 83%. The growth at 10 µM (SF-539) was 48%, the Activity [2] was 106% and the Activity [3] was 145.5%. It also gave a growth at 10 µM (MDA-MB-435) of 67.7%, a growth at 10 µM (786-0) of 80.2% and a growth at 10 µM [4] of 61.4%. The growth at 10 µM (SK-MEL-5) was 81.8%, the growth at 10 µM (OVCAR-4) was 74.9% and the growth at 10 µM (OVCAR-8) was 60.9%. The growth at 10 µM (RXF 393) was 77.2%, the growth at 10 µM (Hs-578T) was 62.3% and the growth at 10 µM (ACHN) was 85.8%. The growth at 10 µM (LOX IMVI) was 78.6%, the growth at 10 µM (SNB-75) was 62.5% and the growth at 10 µM (SN12C) was 78.6%. The growth at 10 µM (NCI-H460) was 72.1%, the growth at 10 µM (HT-29) was 78.8% and the growth at 10 µM (Malme-3M) was 77.2%. For the same compound, the Activity [5] was 140%, the Activity [6] was 112% and the growth at 10 µM (UO-31) was 61.9%. For the same compound, the growth at 10 µM (HCT-116) was 32.5%, the growth at 10 µM (HOP-92) was 85.6% and the growth at 10 µM (MDA-MB-231) was 70.5%. The growth at 10 µM (UACC-257) was 71.1%, the growth at 10 µM (A498) was 75.5% and the growth at 10 µM (SR) was 71.4%. For the same compound, the Activity [7] was 80%, the growth at 10 µM (BT-549) was 26.9% and the growth at 10 µM (U-251) was 63%.
